Counter-ions that a name gives are not always drawn. Bounds are passed on as bounds.

For orientation: EC50 means the concentration at which the effect is half-maximal. Higher therefore signals lower potency in that assay.

One assay deals with Sphingosine 1-phosphate receptor 1 (Homo sapiens, UniProt P21453). Nature of the assay: direct activation of human S1P1 – cell-based, agonist mode, 60K MLSMR set, dose response (AID 468).
Chain of Sphingosine 1-phosphate receptor 1 (P21453 whole entry): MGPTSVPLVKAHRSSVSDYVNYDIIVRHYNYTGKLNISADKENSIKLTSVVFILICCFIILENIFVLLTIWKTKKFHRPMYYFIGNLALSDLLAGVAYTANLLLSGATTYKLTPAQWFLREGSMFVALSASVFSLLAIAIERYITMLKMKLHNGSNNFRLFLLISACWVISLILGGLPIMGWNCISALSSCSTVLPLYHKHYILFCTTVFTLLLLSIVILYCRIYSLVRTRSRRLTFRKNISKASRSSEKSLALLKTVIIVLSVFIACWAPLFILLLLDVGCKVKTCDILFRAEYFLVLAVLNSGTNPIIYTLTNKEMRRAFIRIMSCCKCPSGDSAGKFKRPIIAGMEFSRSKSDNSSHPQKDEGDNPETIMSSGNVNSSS
Conditions: not given
`CCOc1ccc(-c2noc(-c3cccnc3)n2)cc1OC` [3-(4-ethoxy-3-methoxy-phenyl)-5-(3-pyridyl)-1,2,4-oxadiazole]: the EC50 came out at 1.2 µM.

`CC(C)Oc1cc(O)c2c(=O)c(-c3ccc(O)cc3)coc2c1` [3-(4-hydroxyphenyl)-5-oxidanyl-7-propan-2-yloxy-chromen-4-one] showed an EC50 greater than 1 µM.

For the molecule `COc1ccc(-c2nc(-c3ccc(Br)o3)no2)cc1OC` [3-(5-bromanylfuran-2-yl)-5-(3,4-dimethoxyphenyl)-1,2,4-oxadiazole], the half-maximal effective concentration (EC50) came to 7.98 µM.

`CN(C)CC(C(=O)c1ccccc1)c1ccccc1` (stereo unspecified) [3-(dimethylamino)-1,2-diphenyl-1-propanone;hydrochloride] returned an EC50 of 9.7 µM.

On to `CCOc1ccc(-c2nc(-c3ccccc3C)no2)cc1` [3-(o-tolyl)-5-p-phenetyl-1,2,4-oxadiazole], for which the EC50 was 1.87 µM.

The molecule `CN(C)c1ccnc2sc3c(=O)n(Cc4ccccc4)cnc3c12` [3-Benzyl-9-dimethylamino-3H-pyrido[3',2':4,5]thieno[3,2-d]pyrimidin-4-one] displayed an EC50 of 2.47 µM.

The molecule `Cc1cc(NC(=O)c2oc3ccccc3c2C)ccc1-n1cnnn1` [3-Methyl-benzofuran-2-carboxylic acid (3-methyl-4-tetrazol-1-yl-phenyl)-amide] gave an EC50 of 7.44 µM.

In turn, `Cc1cc(C(=O)CC#N)c(C)n1-c1ccc(OC(F)F)cc1` [3-[1-[4-(difluoromethoxy)phenyl]-2,5-dimethyl-3-pyrrolyl]-3-oxopropanenitrile] registered an EC50 greater than 10 µM.

In turn, `O=C(CCc1nc(-c2ccccc2F)no1)Nc1ccc(Oc2ccccc2)cc1` [3-[3-(2-fluorophenyl)-1,2,4-oxadiazol-5-yl]-N-(4-phenoxyphenyl)propanamide] showed an EC50 of 4.94 µM.

For `COc1ccc(/N=c2\scc(-c3ccc(S(=O)(=O)N4CCOCC4)cc3)n2CCCO)cc1` [3-[(2Z)-2-[(4-methoxyphenyl)imino]-4-[4-(morpholin-4-ylsulfonyl)phenyl]-1,3-thiazol-3(2H)-yl]propan-1-ol], it took 13.2 µM to reach a half-maximal effect (EC50).

Consider `CCOc1ccc(C(=O)Nc2c(C(N)=O)oc3ccccc23)cc1` [3-[(4-ethoxybenzoyl)amino]-1-benzofuran-2-carboxamide], for which a half-maximal effect (EC50) was put at 4.08 µM.

Regarding `CCOc1ccc(C(=O)Nc2ccc(Cl)cn2)cc1Cl` [3-chloranyl-N-(5-chloranylpyridin-2-yl)-4-ethoxy-benzamide], the EC50 amounted to 5.51 µM.

For the molecule `Cc1ccc(O)c(NC(=O)CCC2CCCCC2)c1` [3-cyclohexyl-N-(2-hydroxy-5-methyl-phenyl)propionamide], the EC50 was greater than 95 µM.

In turn, `Cc1ccsc1C(=O)OCC(=O)c1cc(C)n(CC2CCCO2)c1C` (stereo unspecified) [3-methyl-2-thiophenecarboxylic acid [2-[2,5-dimethyl-1-(2-oxolanylmethyl)-3-pyrrolyl]-2-oxoethyl] ester] displayed an EC50 of 7.53 µM.

`Cc1nnc2ccc(Oc3ccc(-c4ccccc4)cc3)nn12` [3-methyl-6-(4-phenylphenoxy)-[1,2,4]triazolo[4,3-b]pyridazine] showed an EC50 of 5.08 µM.

On to `Cn1c(=O)oc2cc(S(=O)(=O)N3CCCC(C(=O)N4CC=C(c5ccccc5)CC4)C3)ccc21` (stereo unspecified) [3-methyl-6-[3-(4-phenyl-3,6-dihydro-2H-pyridine-1-carbonyl)piperidin-1-yl]sulfonyl-1,3-benzoxazol-2-one], for which the EC50 worked out at 9.63 µM.

Take `Oc1ccc(-c2nnc(-c3ccc(O)cc3)nn2)cc1` [4,4'-(1,2,4,5-tetrazine-3,6-diyl)diphenol]: the EC50 is greater than 10 µM.

Consider `Nc1ccc(N2CCCCCC2)cc1` [4-(1-azepanyl)aniline;hydrochloride], for which the EC50 is greater than 10 µM.

`NC(=O)c1ccc(OCC(F)(F)C(F)(F)C(F)(F)C(F)(F)C(F)(F)C(F)F)cc1` [4-(2,2,3,3,4,4,5,5,6,6,7,7-dodecafluoroheptoxy)benzamide] displayed an EC50 of 8 µM.

Regarding `O=C(NCc1ccccc1)N1CCN(c2ccc(Cl)c(Cl)c2)CC1` [4-(3,4-dichlorophenyl)-N-(phenylmethyl)-1-piperazinecarboxamide], the EC50 is 7.15 µM.

As to `CC(=O)c1ccc(NC(=O)N2CCN(c3cccc(Cl)c3)CC2)cc1` [4-(3-chlorophenyl)-N-(4-ethanoylphenyl)piperazine-1-carboxamide], a half-maximal response (EC50) required 9.76 µM.

For the molecule `c1ccc(N2CCN(c3ncnc4c3oc3ccccc34)CC2)cc1` [4-(4-phenyl-1-piperazinyl)benzofuro[3,2-d]pyrimidine], the EC50 is greater than 95 µM.

`CCOc1cc(C2NCc3ccccc3-n3cccc32)ccc1O` (stereo unspecified) [4-(5,6-dihydro-4H-pyrrolo[1,2-a][1,4]benzodiazepin-4-yl)-2-ethoxy-phenol;hydrochloride] gave an EC50 of 16.1 µM.

`Oc1ccc(-c2nnc(SCC3CCCCC3)o2)cc1` [4-(5-Cyclohexylmethylsulfanyl-[1,3,4]oxadiazol-2-yl)-phenol] returned an EC50 of 0.552 µM.

Turning to `CC(C)c1ccc2oc(-c3ccc(N)cc3)nc2c1` [4-(5-propan-2-yl-1,3-benzoxazol-2-yl)aniline], the midpoint of the response, the EC50, lay at 2.64 µM.

Staying with this assay, now noted: inactive by the depositor's call.
In turn, `COc1ccccc1-c1nc(-c2ccc(Br)cc2)no1` [3-(4-bromophenyl)-5-(2-methoxyphenyl)-1,2,4-oxadiazole] gave a 50% effective concentration (EC50) of 12 µM.

The molecule `COc1ccc(Cc2nc(-c3ccc(-n4cccc4)cc3)no2)cc1OC` [3-(4-pyrrol-1-ylphenyl)-5-veratryl-1,2,4-oxadiazole] had an EC50 of 13.7 µM.

Molecule `CCSc1nc(N2CCOCC2)c2c(c1C#N)CCCC2` [3-(ethylthio)-1-(4-morpholinyl)-5,6,7,8-tetrahydroisoquinoline-4-carbonitrile] displayed an EC50 of 46.8 µM.

With `Nc1c(C(=O)NC2CCCC2)sc2nc(-c3cccs3)ccc12` [3-Amino-6-thiophen-2-yl-thieno[2,3-b]pyridine-2-carboxylic acid cyclopentylamide], the response was half-maximal at 14.4 µM (EC50).

As for `CC/N=c1\sc(C(=O)NCCc2ccccc2)cc(=O)n1CC` [3-Ethyl-2-[(Z)-ethylimino]-4-oxo-3,4-dihydro-2H-[1,3]thiazine-6-carboxylic acid phenethyl-amide], a half-maximal response (EC50) required 22.5 µM.

`CCN(CC)S(=O)(=O)c1cccc(S(=O)(=O)c2cccc(S(=O)(=O)N(CC)CC)c2)c1` [3-[3-(diethylsulfamoyl)phenyl]sulfonyl-N,N-diethyl-benzenesulfonamide] came in with an EC50 of 19.3 µM.

As for `CCn1c(NC(=O)c2cccc(Cn3cc(Cl)cn3)c2)nc2ccccc21` [3-[(4-chloranylpyrazol-1-yl)methyl]-N-(1-ethylbenzimidazol-2-yl)benzamide], the EC50 turned out to be 14 µM.

As to `C=CCn1c(SCC(=O)c2cccs2)nc2sc(CC)cc2c1=O` [3-allyl-6-ethyl-2-[[2-keto-2-(2-thienyl)ethyl]thio]thieno[2,3-d]pyrimidin-4-one], the response was half-maximal at 39.9 µM (EC50).

Molecule `Cc1cc(C(=O)COC(=O)c2csc3c2CCCC3)c(C)n1C` [4,5,6,7-tetrahydro-1-benzothiophene-3-carboxylic acid [2-oxo-2-(1,2,5-trimethyl-3-pyrrolyl)ethyl] ester] returned an EC50 of 18.6 µM.

Take `O=C(OC1CCCCC1)c1ccc(NC(=O)c2ccco2)cc1` [4-(2-furoylamino)benzoic acid cyclohexyl ester]: the response was half-maximal at 13.4 µM (EC50).

With `Oc1nnc(Sc2ncnc3sccc23)n1CCc1ccccc1` [4-(2-phenylethyl)-3-(4-thieno[2,3-d]pyrimidinylthio)-1H-1,2,4-triazol-5-one], the response was half-maximal at 16.9 µM (EC50).

The record behind these values is BindingDB's records for doi:10.7270/Q2251GJ9 (The Scripps Research Institute Molecular Screening Center, 2007).
